# Laboratory results as given in patent publication US9732094B2, “Arylquinazolines” (Merck Patent GmbH, priority 2013, dated 2017).
# pIC50, pKi: −log10 of the molar value. Like-named read-outs stand apart in the source and are kept apart here.
# Legend:
# DNA-PK = DNA-PK (Homo sapiens (Human), UniProt P78527); experiment: DNA-PK assay (biochemical), flashplate 33P-ATP kinase assay
# In short: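 Radiometric kinase reaction in streptavidin-coated flashplates, stopped with 200 mM EDTA, then 30 min room-temperature incubation and saline washes.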
# [1] = biological target: DNA-PK phosphorylation at serine 2056 (Homo sapiens (Human), UniProt P78527); experiment: DNA-PK phosphorylation at serine 2056 (cellular), bleomycin-treated HCT116 cells, ELISA; assay type: cell-based; details: read-out: IC50 pDNA-PK
# In short: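 HCT116 cells grown overnight were co-treated with 10 μM bleomycin and test compound for 6 h at 37 °C. Phospho-DNA-PK was quantified by chemiluminescent ELISA and normalised to total DNA-PKcs signal, with DMSO control as blank.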
# Kv11.1 (hERG) = Kv11.1 (hERG) (Homo sapiens (Human), UniProt Q12809); experiment: Kv11.1 (hERG) ion channel activity (patch clamp assay), HEK293 cells transfected with hERG gene
# [2] = cellular, HCT116 cells, 10 μM bleomycin, six hours
# [3] = read-out: Ki [Kv1.11 hERG], patch clamp, HEK293 transfected with hERG gene
# [4] = cellular DNA-PK phosphorylation at serine 2056, HCT116
# [5] = read-out: Ki [Kv1.11 hERG], hERG patch clamp assay (cells without asterisk)
# [6] = Ki [Kv1.11 hERG], hERG patch clamp assay (cells without asterisk)
# [7] = Ki [Kv1.11 hERG], patch clamp, HEK293 transfected with hERG gene
# Chain of Kv11.1 (hERG) (Q12809 whole entry): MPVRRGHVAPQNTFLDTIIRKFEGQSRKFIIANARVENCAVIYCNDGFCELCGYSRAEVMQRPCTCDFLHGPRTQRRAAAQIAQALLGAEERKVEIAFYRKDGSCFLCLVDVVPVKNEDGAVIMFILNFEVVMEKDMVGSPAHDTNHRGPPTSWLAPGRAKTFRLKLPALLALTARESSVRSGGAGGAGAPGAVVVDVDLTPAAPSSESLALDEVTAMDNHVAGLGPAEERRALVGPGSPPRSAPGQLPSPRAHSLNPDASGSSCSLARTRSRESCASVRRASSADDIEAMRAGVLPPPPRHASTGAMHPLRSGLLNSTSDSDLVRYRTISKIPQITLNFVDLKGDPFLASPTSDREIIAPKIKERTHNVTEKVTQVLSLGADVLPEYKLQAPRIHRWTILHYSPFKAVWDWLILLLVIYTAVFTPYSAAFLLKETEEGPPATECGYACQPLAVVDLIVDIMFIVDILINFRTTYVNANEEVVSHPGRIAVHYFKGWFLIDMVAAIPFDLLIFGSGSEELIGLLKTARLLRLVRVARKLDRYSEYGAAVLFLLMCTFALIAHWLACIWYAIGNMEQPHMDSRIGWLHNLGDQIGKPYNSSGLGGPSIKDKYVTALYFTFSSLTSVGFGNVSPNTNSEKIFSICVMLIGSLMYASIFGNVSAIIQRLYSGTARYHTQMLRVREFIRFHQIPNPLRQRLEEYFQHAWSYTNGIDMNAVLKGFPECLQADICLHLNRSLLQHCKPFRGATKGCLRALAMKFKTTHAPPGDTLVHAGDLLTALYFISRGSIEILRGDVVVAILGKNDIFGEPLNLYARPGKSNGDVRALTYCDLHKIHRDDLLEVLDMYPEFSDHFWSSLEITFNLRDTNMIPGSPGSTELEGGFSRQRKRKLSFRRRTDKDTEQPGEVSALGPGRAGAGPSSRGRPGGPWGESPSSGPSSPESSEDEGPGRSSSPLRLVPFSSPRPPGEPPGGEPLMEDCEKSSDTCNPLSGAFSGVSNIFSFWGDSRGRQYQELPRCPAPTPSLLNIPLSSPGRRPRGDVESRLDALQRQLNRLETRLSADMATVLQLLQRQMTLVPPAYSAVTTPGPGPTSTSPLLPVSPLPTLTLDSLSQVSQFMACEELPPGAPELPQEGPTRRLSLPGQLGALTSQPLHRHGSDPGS
Structure (SMILES),"pIC50 (DNA-PK; enzymatic, 5 μM ATP)","pIC50 [1, 2]",pIC50 (DNA-PK; biochemical DNA-PK assay),"pIC50 [1, 4]",pKi (Kv11.1 (hERG); [5]),also measured
"OC(c1ccc2nccn2n1)c1cc(-c2ncnc3cc(N4CCOCC4)ccc23)c(F)cc1F (single isomer, unassigned) [Example 21, [2,4-Difluoro-5-(7-morpholin-4-yl-quinazolin-4-yl)phenyl]-imidazo[1,2-b]pyridazin-6-ylmethanol]",> 8.52,> 6.30,–,–,–,pKi (Kv11.1 (hERG); [3]): < 4.60
"COc1ccc(C(O)c2cc(-c3ncnc4cc(N5CCOCC5)cnc34)c(F)cc2Cl)nn1 (stereo not drawn) [Example 227, [2-Chloro-4-fluoro-5-(7-morpholin-4-yl-pyrido[3,2-d}-pyrimidin-4-yl)-phenyl]-(6-methoxy-pyridazin-3-yl)-methanol]",–,–,8.15 to 8.52,5.30 to 6.30,< 4.60,–
"COc1nccnc1[C@@H](O)c1cc(-c2ncnc3cc(N4CCOCC4)ccc23)ccc1Cl [Example 411, (S)-[2-Chloro-5-(7-morpholin-4-yl-quinazolin-4-yl)-phenyl]-(3-methoxy-pyrazin-2-yl)-methanol]",–,–,8.15 to 8.52,5.30 to 6.30,–,pKi (Kv11.1 (hERG); [6]): 4.82 to 5.00
"OC(c1ccn2nccc2n1)c1cc(-c2ncnc3cc(N4CCOCC4)ccc23)c(F)cc1Cl (stereo not drawn) [Example 39, [2-Chloro-4-fluoro-5-(7-morpholin-4-yl-quinazolin-4-yl)phenyl]-pyrazolo[1,5-a]-pyrimidin-5-ylmethanol]",8.15 to 8.52,> 6.30,–,–,–,pKi (Kv11.1 (hERG); [7]): 4.60 to 4.82
"Cc1nccnc1C(O)c1ccc(F)c(-c2ncnc3cc(N4CCOCC4)ccc23)c1 (stereo not drawn) [Example 78, [4-Fluoro-3-(7-morpholin-4-yl-quinazolin-4-yl)phenyl]-(3-methylpyrazin-2-yl)-methanol]",8.15 to 8.52,> 6.30,–,–,–,pKi (Kv11.1 (hERG); [7]): 4.60 to 4.82
"[2H]C1([2H])OC([2H])([2H])C([2H])([2H])N(c2ccc3c(-c4cc(C(O)c5nccnc5OC)c(Cl)cc4F)ncnc3c2)C1([2H])[2H] (stereo not drawn) [Example 242, [2-Chloro-4-fluoro-5-[7-(2,2,3,3,5,5,6,6-octadeuteriomorpholin-4-yl)quinazolin-4-yl]phenyl]-(3-methoxypyrazin-2-yl)methanol]",–,–,> 8.52,> 6.30,–,pKi (Kv11.1 (hERG); [6]): 4.60 to 4.82
"OC(c1cc(-c2ncnc3cc(N4CCOCC4)ccc23)c(F)cc1F)c1nccnc1OC(F)F (stereo not drawn) [Example 450, (3-Difluoromethoxy-pyrazin-2-yl)-[2,4-difluoro-5-(7-morpholin-4-yl-quinazolin-4-yl)-phenyl]methanol]",–,–,7.52 to 8.15,5.00 to 5.30,–,pKi (Kv11.1 (hERG); [6]): 4.60 to 4.82
"Cn1nc(C(O)c2cc(-c3ncnc4cc(N5CCOCC5)ccc34)c(F)cc2Cl)ccc1=O (single isomer, unassigned) [Example 44, 6-{[2-Chloro-4-fluoro-5-(7-morpholin-4-yl-quinazolin-4-yl)phenyl]-hydroxymethyl}-2-methyl-2H-pyridazin-3-one]",7.52 to 8.15,5.00 to 5.30,–,–,–,pKi (Kv11.1 (hERG); [7]): 4.60 to 4.82
"O=C(O)COc1ccc(C(O)c2cc(-c3ncnc4cc(N5CCOCC5)ccc34)c(F)cc2Cl)nn1 (stereo not drawn) [Example 113, (6-{[2-Chloro-4-fluoro-5-(7-morpholin-4-yl-quinazolin-4-yl)-phenyl]hydroxy-methyl}pyridazin-3-yl-oxy)acetic acid]",8.15 to 8.52,4.52 to 5.00,–,–,–,pKi (Kv11.1 (hERG); [3]): < 4.60
"COc1cnc(C(O)c2ccc(F)c(-c3ncnc4cc(N5CCOCC5)ccc34)c2)nc1 (stereo not drawn) [Example 69, [4-Fluoro-3-(7-morpholin-4-yl-quinazolin-4-yl)phenyl]-(5-methoxypyrimidin-2-yl)methanol]",8.15 to 8.52,5.00 to 5.30,–,–,–,pKi (Kv11.1 (hERG); [3]): < 4.60
"CC(C)(C)Oc1nccnc1C(O)c1ccc(F)c(-c2ncnc3cc(N4CCOCC4)ccc23)c1 (stereo not drawn) [Example 13, (3-tert-Butoxy-pyrazin-2-yl)-[4-fluoro-3-(7-morpholin-4-yl-quinazolin-4-yl)phenyl]-methanol]",< 7.52,4.52 to 5.00,–,–,–,pKi (Kv11.1 (hERG); [7]): 4.82 to 5.00
"CNCc1csc(C(O)c2cc(-c3ncnc4cc(N5CCOCC5)ccc34)c(F)cc2Cl)n1 (stereo not drawn) [Example 143, [2-Chloro-4-fluoro-5-(7-morpholin-4-ylquinazolin-4-yl)phenyl]-(4-methylaminomethylthiazol-2-yl)methanol]",–,–,–,–,–,"pIC50 (DNA-PK; Table 5): 7.52 to 8.15; pIC50 ([1]; Table 5, HCT116 cells): 5.00 to 5.30; pKi (Kv11.1 (hERG); Ki [Kv1.11 hERG], Table 5): 4.82 to 5.00"
"Cn1nc(C(O)c2ccc(F)c(-c3ncnc4cc(N5CCOCC5)ccc34)c2F)ccc1=O (stereo not drawn) [Example 220, 6-{[2,4-Difluoro-3-(7-morpholin-4-yl-quinazolin-4-yl)-phenyl]hydroxy-methyl}-2-methyl-2H-pyridazin-3-one]",–,–,–,–,–,"pIC50 (DNA-PK; Table 7): < 7.52; pIC50 ([1]; Table 7, HCT116 cells): 5.00 to 5.30; pKi (Kv11.1 (hERG); read-out: Ki [Kv1.11 hERG], Table 7): < 4.60"
"N#CCOc1ccc(C(O)c2cc(-c3ncnc4cc(N5CCOCC5)ccc34)c(F)cc2Cl)nn1 (stereo not drawn) [Example 119, (6-{(2-Chloro-4-fluoro-5-(7-morpholin-4-yl-quinazolin-4-yl)-phenyl] hydroxy-methyl}pyridazin-3-yl-oxy)acetonitrile]",> 8.52,> 6.30,–,–,–,pKi (Kv11.1 (hERG); [7]): 4.60 to 4.82
"COc1nccnc1C(O)c1cc(-c2ncnc3cc(N4CCOCC4)cnc23)c(F)cc1Cl (stereo not drawn) [Example 231, [2-Chloro-4-fluoro-5-(7-morpholin-4-yl-pyrido[3,2-d}-pyrimidin-4-yl)-phenyl]-(3-methoxy-pyrazin-2-yl)-methanol]",–,–,7.52 to 8.15,5.30 to 6.30,< 4.60,–
"COc1ccnnc1C(O)c1ccc(F)c(-c2ncnc3cc(N4CCOCC4)ccc23)c1 (stereo not drawn) [Example 18, [4-Fluoro-3-(7-morpholin-4-yl-quinazolin-4-yl)phenyl]-(4-methoxy-pyridazin-3-yl)methanol]",> 8.52,5.30 to 6.30,–,–,–,pKi (Kv11.1 (hERG); [7]): 4.60 to 4.82

# Continued, in another order:
"pIC50 (DNA-PK; enzymatic, 5 μM ATP)","pIC50 [1, 2]",pIC50 (DNA-PK; biochemical DNA-PK assay),"pIC50 [1, 4]",Structure (SMILES),pKi (Kv11.1 (hERG); [5]),also measured
–,–,7.52 to 8.15,4.52 to 5.00,"NC(=O)C(c1cccnn1)c1cc(-c2ncnc3cc(N4CCOCC4)ccc23)c(F)cc1Cl (stereo not drawn) [Example 300, 2-[2-Chloro-4-fluoro-5-(7-morpholin-4-yl-quinazolin-4-yl)-phenyl]-2-pyridazin-3-ylacetamide]",< 4.60,–
–,–,7.52 to 8.15,4.52 to 5.00,"NC(=O)C(c1cncc(Cl)c1)c1ccc(F)c(-c2ncnc3cc(N4CCOCC4)ccc23)c1 (stereo not drawn) [Example 297, 2-(5-Chloro-pyridin-3-yl)-2-[4-fluoro-3-(7-morpholin-4-yl-quinazolin-4-yl)-phenyl]acetamide]",–,pKi (Kv11.1 (hERG); [6]): 4.82 to 5.00
–,–,8.15 to 8.52,5.00 to 5.30,"COc1nnccc1C(C(N)=O)c1cc(-c2ncnc3cc(N4CCOCC4)ccc23)c(F)cc1Cl (stereo not drawn) [Example 307, 2-[2-Chloro-4-fluoro-5-(7-morpholin-4-yl-quinazolin-4-yl)-phenyl]-2-(3-methoxypyridazin-4-yl)acetamide]",< 4.60,–
–,–,7.52 to 8.15,4.52 to 5.00,"Oc1ncnc(C(O)c2cc(-c3ncnc4cc(N5CCOCC5)ccc34)ccc2Cl)c1Cl (stereo not drawn) [Example 330, 5-Chloro-6-{[2-chloro-5-(7-morpholin-4-yl-quinazolin-4-yl)-phenyl]hydroxy-methyl}pyrimidin-4-ol]",< 4.60,–
–,–,8.15 to 8.52,5.30 to 6.30,"OC(c1cc(-c2ncnc3cc(N4CCOCC4)ccc23)c(F)cc1F)c1nnc2ccccn12 (stereo not drawn) [Example 379, [2,4-Difluoro-5-(7-morpholin-4-yl-quinazolin-4-yl)-phenyl]-[1,2.4]-triazolo[4,3-a]pyridin-3-ylmethanol]",< 4.60,–
–,–,> 8.52,> 6.30,"COc1nccnc1C(O)c1cc(-c2ncnc3cc(N4CCOCC4)ccc23)c(F)cc1Cl (stereo not drawn) [Example 468, [2-Chloro-4-fluoro-5-(7-morpholin-4-yl-quinazolin-4-yl)-phenyl]-(3-methoxy-pyrazin-2-yl)-methanol]",–,pKi (Kv11.1 (hERG); [6]): 4.60 to 4.82
–,–,8.15 to 8.52,5.30 to 6.30,"Cc1cnc(C(O)c2cc(-c3ncnc4cc(N5CCOCC5)ccc34)c(F)cc2F)c(C)n1 (stereo not drawn) [Example 355, [2,4-Difluoro-5-(7-morpholin-4-yl-quinazolin-4-yl)-phenyl]-(3,5-dimethyl-pyrazin-2-yl)methanol]",–,pKi (Kv11.1 (hERG); [6]): 4.60 to 4.82
–,–,> 8.52,> 6.30,"OC(c1ccc(F)c(-c2ncnc3cc(N4CCOCC4)ccc23)c1)c1nncc2sccc12 (stereo not drawn) [Example 333, [4-Fluoro-3-(7-morpholin-4-yl-quinazolin-4-yl)-phenyl]thieno[2,3-d}-pyridazin-4-yl-methanol]",–,pKi (Kv11.1 (hERG); [6]): 4.60 to 4.82
–,–,8.15 to 8.52,5.00 to 5.30,"OC(c1cc(-c2ncnc3cc(N4CCOCC4)ccc23)c(F)cc1F)c1cccc2nncn12 (stereo not drawn) [Example 350, [2,4-Difluoro-5-(7-morpholin-4-yl-quinazolin-4-yl)-phenyl]-[1,2,4]-triazolo[4,3-a]pyridin-5-ylmethanol]",< 4.60,–
–,–,7.52 to 8.15,4.52 to 5.00,"Cc1nccnc1[C@@H](O)c1ccc(F)c(-c2ncnc3cc(N4CCOCC4)cnc23)c1 [Example 233, (S)-[4-Fluoro-3-(7-morpholin-4-yl-pyrido[3,2-d}-pyrimidin-4-yl)-phenyl]-(3-methyl-pyrazin-2-yl)-methanol]",< 4.60,–
–,–,> 8.52,> 6.30,"OC(c1cc(-c2ncnc3cc(N4CCOCC4)ccc23)c(F)cc1F)c1nncc2ccsc12 (stereo not drawn) [Example 342, [2,4-Difluoro-5-(7-morpholin-4-yl-quinazolin-4-yl)-phenyl]thieno[2,3-d}-pyridazin-7-yl-methanol]",< 4.60,–
